Reference: US8969516B2, “Method of hydrolysis of peptide bond” (priority 2006, dated 2015)

Assay: MALDI-TOF screening of Ni^2+ dependent hydrolysis in a combinatorial peptide library
Format: physicochemical
Settings: CH3CO-Gly-Ala-Thr-X-His-Z-Lys-Phe-Leu-NH2 library, Ni^2+ 2 mM, pH 8.2, 10 mM Tris, score=24/tm
Method in brief: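 The screen used 1 mM peptide mixtures in 10 mM Tris, pH 8.2, with 2 mM Ni2+ at two temperatures, 37 °C and 45 °C. Product appearance and substrate decline were monitored visually by MALDI-TOF over 8 h. Scores for X and Z were then summed by row and column to rank substitutions.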

Row | Substance | hydrolysis score from MALDI-TOF screening (37° C.) | hydrolysis score from MALDI-TOF screening (45° C.)
1 | Ac-GATVHWKFL-NH2 [TVHW] | 0 (a score of 0 if no trace of the product of hydrolysis was seen after 8 hours of incubation) | 3 (a score of 3 for detection at 8 hours)
2 | Ac-GATVHYKFL-NH2 [TVHY] | 0 (a score of 0 if no trace of the product of hydrolysis was seen after 8 hours of incubation) | 0 (a score of 0 if no trace of the product of hydrolysis was seen after 8 hours of incubation)
3 | Ac-GATWHAKFL-NH2 [TWHA] | 0 (a score of 0 if no trace of the product of hydrolysis was seen after 8 hours of incubation) | 0 (a score of 0 if no trace of the product of hydrolysis was seen after 8 hours of incubation)
4 | Ac-GATWHDKFL-NH2 [TWHD] | 0 (a score of 0 if no trace of the product of hydrolysis was seen after 8 hours of incubation) | 0 (a score of 0 if no trace of the product of hydrolysis was seen after 8 hours of incubation)
5 | Ac-GATWHEKFL-NH2 [TWHE] | 0 (a score of 0 if no trace of the product of hydrolysis was seen after 8 hours of incubation) | 0 (a score of 0 if no trace of the product of hydrolysis was seen after 8 hours of incubation)
6 | Ac-GATWHFKFL-NH2 [TWHF] | 0 (a score of 0 if no trace of the product of hydrolysis was seen after 8 hours of incubation) | 0 (a score of 0 if no trace of the product of hydrolysis was seen after 8 hours of incubation)
7 | Ac-GATWHGKFL-NH2 [TWHG] | 0 (a score of 0 if no trace of the product of hydrolysis was seen after 8 hours of incubation) | 0 (a score of 0 if no trace of the product of hydrolysis was seen after 8 hours of incubation)
8 | Ac-GATWHHKFL-NH2 [TWHH] | 0 (a score of 0 if no trace of the product of hydrolysis was seen after 8 hours of incubation) | 0 (a score of 0 if no trace of the product of hydrolysis was seen after 8 hours of incubation)
9 | Ac-GATWHIKFL-NH2 [TWHI] | 0 (a score of 0 if no trace of the product of hydrolysis was seen after 8 hours of incubation) | 3 (a score of 3 for detection at 8 hours)
10 | Ac-GATWHKKFL-NH2 [TWHK] | 4 (a score of 4 for detection at 6 hours) | 4 (a score of 4 for detection at 6 hours)
11 | Ac-GATWHLKFL-NH2 [TWHL] | 0 (a score of 0 if no trace of the product of hydrolysis was seen after 8 hours of incubation) | 3 (a score of 3 for detection at 8 hours)
12 | Ac-GATWHMKFL-NH2 [TWHM] | 0 (a score of 0 if no trace of the product of hydrolysis was seen after 8 hours of incubation) | 3 (a score of 3 for detection at 8 hours)
13 | Ac-GATWHNKFL-NH2 [TWHN] | 0 (a score of 0 if no trace of the product of hydrolysis was seen after 8 hours of incubation) | 0 (a score of 0 if no trace of the product of hydrolysis was seen after 8 hours of incubation)
14 | Ac-GATWHPKFL-NH2 [TWHP] | 0 (a score of 0 if no trace of the product of hydrolysis was seen after 8 hours of incubation) | 0 (a score of 0 if no trace of the product of hydrolysis was seen after 8 hours of incubation)
15 | Ac-GATWHQKFL-NH2 [TWHQ] | 0 (a score of 0 if no trace of the product of hydrolysis was seen after 8 hours of incubation) | 0 (a score of 0 if no trace of the product of hydrolysis was seen after 8 hours of incubation)
16 | Ac-GATWHRKFL-NH2 [TWHR] | 3 (a score of 3 for detection at 8 hours) | 4 (a score of 4 for detection at 6 hours)
17 | Ac-GATWHSKFL-NH2 [TWHS] | 0 (a score of 0 if no trace of the product of hydrolysis was seen after 8 hours of incubation) | 0 (a score of 0 if no trace of the product of hydrolysis was seen after 8 hours of incubation)
18 | Ac-GATWHTKFL-NH2 [TWHT] | 0 (a score of 0 if no trace of the product of hydrolysis was seen after 8 hours of incubation) | 0 (a score of 0 if no trace of the product of hydrolysis was seen after 8 hours of incubation)

Row | Substance | hydrolysis score from MALDI-TOF screening (37° C.) | hydrolysis score from MALDI-TOF screening (45° C.)
19 | Ac-GATWHVKFL-NH2 [TWHV] | 0 (a score of 0 if no trace of the product of hydrolysis was seen after 8 hours of incubation) | 0 (a score of 0 if no trace of the product of hydrolysis was seen after 8 hours of incubation)
20 | Ac-GATWHWKFL-NH2 [TWHW] | 3 (a score of 3 for detection at 8 hours) | 4 (a score of 4 for detection at 6 hours)
21 | Ac-GATYHAKFL-NH2 [TYHA] | 0 (a score of 0 if no trace of the product of hydrolysis was seen after 8 hours of incubation) | 0 (a score of 0 if no trace of the product of hydrolysis was seen after 8 hours of incubation)
22 | Ac-GATYHDKFL-NH2 [TYHD] | 0 (a score of 0 if no trace of the product of hydrolysis was seen after 8 hours of incubation) | 0 (a score of 0 if no trace of the product of hydrolysis was seen after 8 hours of incubation)
23 | Ac-GATYHEKFL-NH2 [TYHE] | 0 (a score of 0 if no trace of the product of hydrolysis was seen after 8 hours of incubation) | 0 (a score of 0 if no trace of the product of hydrolysis was seen after 8 hours of incubation)
24 | Ac-GATYHGKFL-NH2 [TYHG] | 0 (a score of 0 if no trace of the product of hydrolysis was seen after 8 hours of incubation) | 0 (a score of 0 if no trace of the product of hydrolysis was seen after 8 hours of incubation)
25 | Ac-GATYHHKFL-NH2 [TYHH] | 0 (a score of 0 if no trace of the product of hydrolysis was seen after 8 hours of incubation) | 0 (a score of 0 if no trace of the product of hydrolysis was seen after 8 hours of incubation)
26 | Ac-GATYHIKFL-NH2 [TYHI] | 0 (a score of 0 if no trace of the product of hydrolysis was seen after 8 hours of incubation) | 0 (a score of 0 if no trace of the product of hydrolysis was seen after 8 hours of incubation)
27 | Ac-GATYHKKFL-NH2 [TYHK] | 3 (a score of 3 for detection at 8 hours) | 4 (a score of 4 for detection at 6 hours)
28 | Ac-GATYHLKFL-NH2 [TYHL] | 0 (a score of 0 if no trace of the product of hydrolysis was seen after 8 hours of incubation) | 0 (a score of 0 if no trace of the product of hydrolysis was seen after 8 hours of incubation)
29 | Ac-GATYHMKFL-NH2 [TYHM] | 0 (a score of 0 if no trace of the product of hydrolysis was seen after 8 hours of incubation) | 0 (a score of 0 if no trace of the product of hydrolysis was seen after 8 hours of incubation)
30 | Ac-GATYHNKFL-NH2 [TYHN] | 0 (a score of 0 if no trace of the product of hydrolysis was seen after 8 hours of incubation) | 0 (a score of 0 if no trace of the product of hydrolysis was seen after 8 hours of incubation)
31 | Ac-GATYHPKFL-NH2 [TYHP] | 0 (a score of 0 if no trace of the product of hydrolysis was seen after 8 hours of incubation) | 0 (a score of 0 if no trace of the product of hydrolysis was seen after 8 hours of incubation)
32 | Ac-GATYHQKFL-NH2 [TYHQ] | 0 (a score of 0 if no trace of the product of hydrolysis was seen after 8 hours of incubation) | 0 (a score of 0 if no trace of the product of hydrolysis was seen after 8 hours of incubation)
33 | Ac-GATYHRKFL-NH2 [TYHR] | 4 (a score of 4 for detection at 6 hours) | 4 (a score of 4 for detection at 6 hours)
34 | Ac-GATYHSKFL-NH2 [TYHS] | 0 (a score of 0 if no trace of the product of hydrolysis was seen after 8 hours of incubation) | 0 (a score of 0 if no trace of the product of hydrolysis was seen after 8 hours of incubation)
35 | Ac-GATYHTKFL-NH2 [TYHT] | 0 (a score of 0 if no trace of the product of hydrolysis was seen after 8 hours of incubation) | 0 (a score of 0 if no trace of the product of hydrolysis was seen after 8 hours of incubation)
